Experimental data as given in patent US4956381A, “Treating tissue calcium depletion or degenerative processes in bone or cartilage” (Sandoz Ltd., priority 1987, dated 1990).
Like-named read-outs stand apart in the source and are kept apart here.

Experiments:
[1] = tested on: lysosomal enzyme N-acetyl-glucose-aminidase; assay: Prevention of bone resorption: N-acetyl-glucose-aminidase release from calvaria; format: cell-based, Swiss albino mice; details: Mus musculus, read-out: IC50 N-acetylglucose-aminidase
Protocol: Calvaria halves (frontal and parietal parts) from 4-5 day Swiss albino mice are cultured on stainless steel grids in BGJ bone tissue culture medium, supplemented with 1 mg/ml BSA at the interphase of medium and gas in a humidified atmosphere (95% air/5% CO2 ) at 37° C. - c.f. Reynolds et al. in "Organ Culture in Biomed. Res." eds. Balls and Mamichendam, Cambridge University Press, p.p. 355-366 (1976).
Influence of test substance at varying concentrations on calcium release into :he test medium in the presence of calcium release stimulators [PGE2, LPS or […] (1,25D3)]is determined. For this purpose calcium concentrations are measured in bone culture supernatants obtained from 72 and 144 hour cultures and in TCA extracts of the calvaria at the end of culture by spectrometric methods [Gindler et al., Am. J. Clin. Pathol. 58, 376-382 (1972)]. Activity of lysosomal enzyme N-acetyl-glucose-aminidase in bone culture supernatants and in Triton 100 extracts of calvaria after culture is also determined employing the method of Banerjee and Basu, Biochem. J., 45, 113-118 (1975). Changes in enzyme activity are expressed as μ units/calvarium half and as % release.
(For the calculation of IC50 values the difference between resorption rate in control cultures and resorption in maximally stimulated cultures is taken as 100 %. The IC50 is taken as the concentration of test substance which inhibits maximum resorption by 50 %)

[2] = tested on: periodontal disease; assay: Clinical trial III: calcium resorption - periodontal disease; format: in vivo, human; details: ca. 400 to 1200 mg p.o./day or injection ca. 0.5 or 1.0 to 5.0 mg per gum pouch; after ca. 2 to 3 weeks
Protocol: COMPOUND OF THE INVENTION, e.g. compound D2 or K1 in substantially pure Z-isomeric form, is administered at dosages of from ca. 400 to 1200 mg/p.o./day administered once or in divided dosages up to 4x daily, or by injection into the gum at the site of disease at dosages of the order of about 0.5 or 1.0 to about 5.0 mg into each gum pouch. The subjects are examined at regular weekly or 2x weekly intervals for disease progression.

Compound: COC1=Cc2ccccc2/C(=C/C(=O)O)c2ccsc21 [Compound D2, [10-Methoxy-4H-benzo[4,5]cyclohepta[1,2-b]thiophen-4-ylidene]-acetic acid]
- IC50 ([1]; in the presence of 1,25D3): 37 µM
- IC50 ([1]; in the presence of LPS): 8.3 µM
- IC50 ([1]; in the presence of PGE2): 7.9 µM
- condition (periodontal disease) [2]: marked improvement in condition after ca. 2 to 3 weeks continuous therapy
